From patent US4818753A, “Synthesis and method of use for 2, 4 diaminoquinazoline” (SRI International, priority 1987, dated 1989)
≈ marks a conversion by molar mass, not a printed value. Where two headings read alike, the source gives them in different places.

How the values were obtained:
Cryptococcus neoformans [1] = conditions: Hariri 1976, cited from earlier work
Cryptococcus neoformans [2] = conditions: Hariri 1976; cited from earlier work
Plasmodium species = conditions: Hariri 1976; cited from earlier work
Candida albicans (10231) = assay: Broth dilution assay, F1; assay type: cell-based
Method: (§1) Both broth dilution and agar dilution assays were used to assess the antifungal activity of the compounds of the invention. The cultures were maintained in Sabouraud dextrose broth (SDB) and diluted with […]. 2.5 l of SDB was prepared and distributed into sterile vessels as follows: 49 ml into 1 vessel, 27 ml into 3 vessels, 45 ml into 2 vessels.
(§2) Five mg/ml concentration of each compound was prepared using DMSO as the solvent; warming and sonication were necessary to dissolve each compound completely. The compounds were then diluted in SDB according to the following protocol:
(§3) 5. 1 ug/ml--5 ml (3)+45 ml SDB
(§4) The compound at each concentration in SDB was then dispensed into 6 tubes each containing 4 ml […]. Controls (without any compound) were also prepared to insure that the solvent itself was not fungicidal or fungistatic.
(§5) Cultures were grown in SDB for 24 h at 30° C. C. albicans and C. neoformans were diluted 1:10 in SDB before inoculation. Inoculation volume for yeasts was 2 drops of diluted cells per tube. The fungal cultures were homogenized before inoculation. The same volume was added, but without dilution. All tubes were incubated at room temperature on a rotating wheel. After 16 h of incubation at room temperature, the fungistatic assay was set up on agar plates. […] Yeasts were inoculated onto SDA (the corresponding agar) plates and fungi onto mycosel agar plates. These plates were then incubated at room temperature.

Candida albicans (14053) = assay: Broth dilution assay, F2; assay type: cell-based
Method: as §1, §2, §3, §4, §5

[3] = system: Cryptococcus neoformans (13690); assay: Broth dilution assay, F3; assay type: cell-based
Method: as §1, §2, §3, §4, §5

[4] = system: Epidermophyton floccosum (15693); assay: Broth dilution assay, F4; assay type: cell-based
Method: as §1, §2, §3, §4, §5

[5] = system: Trichophyton mentagrophytes (11481); assay: Broth dilution assay, F6; assay type: cell-based
Method: as §1, §2, §3, §4, §5

[6] = system: Microsporum gypseum (14683); assay: Broth dilution assay, F12; assay type: cell-based; conditions: Nannizzia gypsea
Method: as §1, §2, §3, §4, §5

[7] = system: Penicillium citrinum (9849); assay: Broth dilution assay, F19; assay type: cell-based; conditions: for MIC: Table 1, F19, Sabouraud Dextrose Broth pH 5.5, read-out: Minimum Inhibitory Concentration (S, fungistatic)
Method: as §1, §2, §3, §4, §5

fungi = assay: Broth dilution assay, whole panel; assay type: cell-based; conditions: Tables 1 and 2
Method: as §1, §2, §3, §4
as §5, with “These plates were then incubated at room temperature.” left out

Candida species = conditions: with SMX, against Candida; Castaldo 1979; cited from earlier work
[8] = Table 1, F1, Sabouraud Dextrose Broth pH 5.5, read-out: Minimum Inhibitory Concentration (S, fungistatic)
[9] = Table 1, F1, Sabouraud Dextrose Broth pH 5.5, read-out: Minimum Lethal Concentration (C, fungicidal)
[10] = Table 1, F2, Sabouraud Dextrose Broth pH 5.5, read-out: Minimum Inhibitory Concentration (S, fungistatic)
[11] = Table 1, F2, Sabouraud Dextrose Broth pH 5.5, read-out: Minimum Lethal Concentration (C, fungicidal)
[12] = Table 1, F3, Sabouraud Dextrose Broth pH 5.5, read-out: Minimum Inhibitory Concentration (S, fungistatic)
[13] = Table 1, F3, Sabouraud Dextrose Broth pH 5.5, read-out: Minimum Lethal Concentration (C, fungicidal)
[14] = Table 1, F4, Sabouraud Dextrose Broth pH 5.5, read-out: Minimum Inhibitory Concentration (S, fungistatic)
[15] = Table 1, F4, Sabouraud Dextrose Broth pH 5.5, read-out: Minimum Lethal Concentration (C, fungicidal)
[16] = Table 1, F6, Sabouraud Dextrose Broth pH 5.5, read-out: Minimum Inhibitory Concentration (S, fungistatic)
[17] = Table 1, F6, Sabouraud Dextrose Broth pH 5.5, read-out: Minimum Lethal Concentration (C, fungicidal)
[18] = Table 1, Sabouraud Dextrose Broth pH 5.5, read-out: Minimum Inhibitory Concentration (S, fungistatic)
[19] = Table 1, Sabouraud Dextrose Broth pH 5.5, read-out: Minimum Lethal Concentration (C, fungicidal)
[20] = Table 1, F19, Sabouraud Dextrose Broth pH 5.5, read-out: Minimum Lethal Concentration (C, fungicidal)
[21] = Table 2, F1, Sabouraud Dextrose Broth pH 5.5, read-out: C Fungicidal
[22] = Table 2, F1, Sabouraud Dextrose Broth pH 5.5, read-out: S Fungistatic
[23] = Table 2, F3, Sabouraud Dextrose Broth pH 5.5, read-out: C Fungicidal
[24] = Table 2, F3, Sabouraud Dextrose Broth pH 5.5, read-out: S Fungistatic
[25] = Table 2, F4, Sabouraud Dextrose Broth pH 5.5, read-out: C Fungicidal
[26] = Table 2, F6, Sabouraud Dextrose Broth pH 5.5, read-out: C Fungicidal
[27] = Table 2, F6, Sabouraud Dextrose Broth pH 5.5, read-out: S Fungistatic
[28] = Table 2, Sabouraud Dextrose Broth pH 5.5, read-out: C Fungicidal
[29] = Table 2, Sabouraud Dextrose Broth pH 5.5, read-out: S Fungistatic
[30] = pH 5.5, read-out: Minimum Inhibitory Concentration (S, fungistatic)
[31] = pH 5.5, read-out: Minimum Lethal Concentration (C, fungicidal)
[32] = pH 5.5, read-out: S Fungistatic

| Structure (SMILES) | MIC (Candida albicans (10231); [8]) | MFC (Candida albicans (10231); [9]) | MIC (Candida albicans (14053); [10]) | MFC (Candida albicans (14053); [11]) | MIC [3, 12] | MFC [3, 13] | MIC [4, 14] | MFC [4, 15] | MIC [5, 16] | MFC [5, 17] | MIC [6, 18] | MFC [6, 19] | MIC [7] | MFC [7, 20] | MFC [5, 26] | MIC [5, 27] | MFC [6, 28] | MIC [6, 29] | further results |
| --- | --- | --- | --- | --- | --- | --- | --- | --- | --- | --- | --- | --- | --- | --- | --- | --- | --- | --- | --- |
| Nc1nc(N)c2cc(NC(=O)Cc3ccc(Cl)c(Cl)c3)ccc2n1 [2,4-diamino-6-(2-(3,4-dichlorophenyl)acetamido)quinazoline] |  |  |  |  |  |  |  |  |  |  |  |  |  |  |  |  |  |  | minimum inhibitory concentration (MIC) (Cryptococcus neoformans [1]; C. neoformans): 6 to 8 µg/mL; in vitro activity (Cryptococcus neoformans [1]; in vitro): active in vitro and in vivo; in vivo activity (Cryptococcus neoformans [2]): active in vitro and in vivo; activity against Plasmodium (Plasmodium species): no activity |
| Cc1cccc2nc(N)nc(N)c12 [H] | > 100 µg/mL | > 100 µg/mL | > 100 µg/mL | > 100 µg/mL | > 100 µg/mL | > 100 µg/mL | > 30 µg/mL | > 30 µg/mL | > 30 µg/mL | > 30 µg/mL | > 30 µg/mL | > 30 µg/mL | > 100 µg/mL | > 100 µg/mL |  |  |  |  |  |
| CCCCCCc1ccc2nc(N)nc(N)c2c1C [--CH2 (CH2)4 CH3, 2,4-Diamino-5-methyl-6-n-hexylquinazoline] | 30 µg/mL (≈ 116 µM) | 30 µg/mL (≈ 116 µM) | 30 µg/mL (≈ 116 µM) | 30 µg/mL (≈ 116 µM) | 3 µg/mL (≈ 11.6 µM) | 10 µg/mL (≈ 38.7 µM) | 3 µg/mL (≈ 11.6 µM) |  | 30 µg/mL (≈ 116 µM) | > 30 µg/mL | 10 µg/mL (≈ 38.7 µM) | 30 µg/mL (≈ 116 µM) | 100 µg/mL (≈ 387 µM) | 100 µg/mL (≈ 387 µM) | 30 µg/mL (≈ 116 µM) | 30 µg/mL (≈ 116 µM) | 100 µg/mL (≈ 387 µM) | 30 µg/mL (≈ 116 µM) | MFC (Candida albicans (10231); [21]): > 100 µg/mL; MIC (Candida albicans (10231); [22]): 30 µg/mL (≈ 116 µM); MFC [3, 23]: 3 µg/mL (≈ 11.6 µM); MIC [3, 24]: 3 µg/mL (≈ 11.6 µM); MFC [4, 25]: 30 µg/mL (≈ 116 µM); fungicidal and fungistatic activity in words (fungi): best fungicidal and fungistatic activity |
| CCCc1ccc2nc(N)nc(N)c2c1C [--CH2 CH2 CH3] | > 100 µg/mL | > 100 µg/mL | > 100 µg/mL | > 100 µg/mL | > 100 µg/mL | > 100 µg/mL | 30 µg/mL (≈ 139 µM) | > 30 µg/mL | > 30 µg/mL | > 30 µg/mL | > 30 µg/mL | > 30 µg/mL | > 100 µg/mL | > 100 µg/mL |  |  |  |  |  |
| Clc1ccc(COC(Cn2ccnc2)c2ccc(Cl)cc2Cl)c(Cl)c1 (centres unmarked) [Miconazole, reference compound] |  |  |  |  |  |  | ≤ 0.1 µg/mL |  | 1 µg/mL (≈ 2.4 µM) |  | 3 µg/mL (≈ 7.21 µM) |  | ≤ 0.1 µg/mL |  | 10 µg/mL (≈ 24 µM) | ≤ 0.3 µg/mL | 30 µg/mL (≈ 72.1 µM) | 1 µg/mL (≈ 2.4 µM) | MFC (Candida albicans (10231); pH 5.5, read-out: C Fungicidal): 100 µg/mL (≈ 240 µM); MIC (Candida albicans (10231); [30]): 10 µg/mL (≈ 24 µM); MFC (Candida albicans (10231); [31]): 30 µg/mL (≈ 72.1 µM); MIC (Candida albicans (10231); [32]): 10 µg/mL (≈ 24 µM); MIC (Candida albicans (14053); [30]): 30 µg/mL (≈ 72.1 µM); MFC (Candida albicans (14053); [31]): 30 µg/mL (≈ 72.1 µM); MFC ([3]; pH 5.5, read-out: C Fungicidal): 10 µg/mL (≈ 24 µM); MIC [3, 30]: ≤ 0.1 µg/mL; MFC [3, 31]: 10 µg/mL (≈ 24 µM); MIC [3, 32]: ≤ 0.3 µg/mL; MFC [4, 25]: ≤ 0.3 µg/mL; MIC ([4]; Table 2, F4, Sabouraud Dextrose Broth pH 5.5, read-out: S Fungistatic): ≤ 0.3 µg/mL; MFC [4, 31]: 1 µg/mL (≈ 2.4 µM); MFC [5, 31]: 30 µg/mL (≈ 72.1 µM); MFC [7, 31]: 30 µg/mL (≈ 72.1 µM) |
| CCCCCCCCCCc1ccc2nc(N)nc(N)c2c1C [R^1 = CH3 R^2 = --CH2 (CH2)8 CH3, 2,4-Diamino-5-methyl-6-n-decylquinazoline] |  |  |  |  |  |  |  |  |  |  |  |  |  |  | 30 µg/mL (≈ 95.4 µM) | > 100 µg/mL | > 100 µg/mL | 100 µg/mL (≈ 318 µM) | MFC (Candida albicans (10231); [21]): > 100 µg/mL; MIC (Candida albicans (10231); [22]): 30 µg/mL (≈ 95.4 µM); MFC [3, 23]: 30 µg/mL (≈ 95.4 µM); MIC [3, 24]: 3 µg/mL (≈ 9.54 µM) |
| CCCCCc1ccc2nc(N)nc(N)c2c1C [--CH2 (CH2)3 CH 3] | 100 µg/mL (≈ 409 µM) | 100 µg/mL (≈ 409 µM) | 100 µg/mL (≈ 409 µM) | 100 µg/mL (≈ 409 µM) | 10 µg/mL (≈ 40.9 µM) | 30 µg/mL (≈ 123 µM) | 10 µg/mL (≈ 40.9 µM) | 30 µg/mL (≈ 123 µM) | 30 µg/mL (≈ 123 µM) | > 30 µg/mL | 30 µg/mL (≈ 123 µM) | > 30 µg/mL | 100 µg/mL (≈ 409 µM) | 100 µg/mL (≈ 409 µM) |  |  |  |  |  |
| Nc1nc(N)c2c(ccc3c2ccn3CC2CC2)n1 [N-cyclopropylmethyl-5,6-pyrrolo-2,4-diaminoquinazoline] |  |  |  |  |  |  |  |  |  |  |  |  |  |  |  |  |  |  | synergistic activity in presence of sulfamethoxazole (SMX) (Candida species): synergistic activity |
